Results as given in ChEMBL document CHEMBL3611970, “Synthesis and evaluation of isatin-β-thiosemicarbazones as novel agents against antibiotic-resistant Gram-positive bacterial species” (2015).
Values after ≈ are worked out from the molar mass of the structure shown.

Legend:
Format in all cases: functional
Enterococcus faecalis [1] = assay: Antimicrobial activity against vancomycin-susceptible Enterococcus faecalis after 16 hrs by broth microdilution method
Staphylococcus aureus [2] = assay: Antimicrobial activity against methicillin-resistant Staphylococcus aureus 309-4 clinical isolate after 16 hrs by broth microdilution method; settings: 309-4, 16 h
Staphylococcus aureus [3] = assay: Antimicrobial activity against methicillin-resistant Staphylococcus aureus 309-6 clinical isolate after 16 hrs by broth microdilution method; settings: 309-6, 16 h
Staphylococcus aureus [4] = assay: Antimicrobial activity against methicillin-resistant Staphylococcus aureus 6-42 clinical isolate after 16 hrs by broth microdilution method; settings: 6-42, 16 h
Staphylococcus aureus [5] = assay: Antimicrobial activity against methicillin-resistant Staphylococcus aureus 6281 clinical isolate after 16 hrs by broth microdilution method; settings: Staphylococcus aureus, 6281, 16 h
Klebsiella pneumoniae = assay: Antimicrobial activity against Klebsiella pneumoniae KP-249 clinical isolate after 16 hrs by broth microdilution method; settings: KP-249, 16 h
Staphylococcus aureus [6] = assay: Antimicrobial activity against methicillin-resistant Staphylococcus aureus 8-21 clinical isolate after 16 hrs by broth microdilution method; settings: 8-21, 16 h
Enterococcus faecalis [7] = assay: Antimicrobial activity against Enterococcus faecalis VRE-309 after 16 hrs by broth microdilution method; settings: VRE-309, 16 h
Staphylococcus aureus [8] = assay: Antimicrobial activity against methicillin-resistant Staphylococcus aureus 309-1 clinical isolate after 16 hrs by broth microdilution method; settings: 309-1, 16 h
Staphylococcus aureus [9] = assay: Antimicrobial activity against methicillin-resistant Staphylococcus aureus Chaoyang clinical isolate after 16 hrs by broth microdilution method
Staphylococcus aureus [10] = assay: Antimicrobial activity against methicillin-resistant Staphylococcus aureus 309-7 clinical isolate after 16 hrs by broth microdilution method; settings: 309-7, 16 h
Staphylococcus aureus [11] = assay: Antimicrobial activity against Staphylococcus aureus ATCC 6538 after 16 hrs by broth microdilution method; settings: ATCC 6538, 16 h
Pseudomonas aeruginosa = assay: Antimicrobial activity against Pseudomonas aeruginosa PAO1 after 16 hrs by broth microdilution method; settings: PAO1, 16 h
Staphylococcus aureus [12] = assay: Antimicrobial activity against methicillin-resistant Staphylococcus aureus 8-24 clinical isolate after 16 hrs by broth microdilution method; settings: 8-24, 16 h
Staphylococcus aureus [13] = assay: Antimicrobial activity against methicillin-resistant Staphylococcus aureus 309-3 clinical isolate after 16 hrs by broth microdilution method; settings: 309-3, 16 h
Staphylococcus aureus [14] = assay: Antimicrobial activity against methicillin-resistant Staphylococcus aureus 309-8 clinical isolate after 16 hrs by broth microdilution method; settings: 309-8, 16 h
Bacillus spizizenii = assay: Antimicrobial activity against Bacillus subtilis ATCC 6633 after 16 hrs by broth microdilution method; settings: ATCC 6633, 16 h

SMILES	MIC (Enterococcus faecalis [1]) [µg/mL]	MIC (Staphylococcus aureus [2]) [µg/mL]	MIC (Staphylococcus aureus [3]) [µg/mL]	MIC (Staphylococcus aureus [4]) [µg/mL]	MIC (Staphylococcus aureus [5]) [µg/mL]	MIC (Klebsiella pneumoniae) [µg/mL]	MIC (Staphylococcus aureus [6]) [µg/mL]	MIC (Enterococcus faecalis [7]) [µg/mL]	MIC (Staphylococcus aureus [8]) [µg/mL]	MIC (Staphylococcus aureus [9]) [µg/mL]	MIC (Staphylococcus aureus [10]) [µg/mL]	MIC (Staphylococcus aureus [11]) [µg/mL]	MIC (Pseudomonas aeruginosa) [µg/mL]	MIC (Staphylococcus aureus [12]) [µg/mL]	MIC (Staphylococcus aureus [13]) [µg/mL]	MIC (Staphylococcus aureus [14]) [µg/mL]	MIC (Bacillus spizizenii) [µg/mL]
O=C1Nc2c(I)cccc2/C1=N/NC(=S)Nc1cccc(Cl)c1	12.5 (≈ 27.4 µM)	1.56 (≈ 3.42 µM)	6.25 (≈ 13.7 µM)	3.12 (≈ 6.83 µM)	6.25 (≈ 13.7 µM)	> 100	6.25 (≈ 13.7 µM)	3.12 (≈ 6.83 µM)	3.12 (≈ 6.83 µM)	0.78 (≈ 1.71 µM)	3.12 (≈ 6.83 µM)	3.12 (≈ 6.83 µM)	> 100	3.12 (≈ 6.83 µM)	3.12 (≈ 6.83 µM)	6.25 (≈ 13.7 µM)	≤ 0.78
COc1cccc(NC(=S)N/N=C2\C(=O)Nc3c(I)cccc32)c1	> 100	6.25 (≈ 13.8 µM)	25 (≈ 55.3 µM)	3.12 (≈ 6.9 µM)	25 (≈ 55.3 µM)	> 100	6.25 (≈ 13.8 µM)	25 (≈ 55.3 µM)	6.25 (≈ 13.8 µM)	1.56 (≈ 3.45 µM)	3.12 (≈ 6.9 µM)	> 100	> 100	6.25 (≈ 13.8 µM)	12.5 (≈ 27.6 µM)	25 (≈ 55.3 µM)	1.56 (≈ 3.45 µM)
Cc1cccc(NC(=S)N/N=C2\C(=O)Nc3c(I)cccc32)c1	12.5 (≈ 28.7 µM)	1.56 (≈ 3.58 µM)	3.12 (≈ 7.15 µM)	1.56 (≈ 3.58 µM)	6.25 (≈ 14.3 µM)	> 100	1.56 (≈ 3.58 µM)	3.12 (≈ 7.15 µM)	1.56 (≈ 3.58 µM)	0.78 (≈ 1.79 µM)	0.78 (≈ 1.79 µM)	3.12 (≈ 7.15 µM)	> 100	1.56 (≈ 3.58 µM)	3.12 (≈ 7.15 µM)	1.56 (≈ 3.58 µM)	≤ 0.78
O=C1Nc2c(I)cccc2/C1=N/NC(=S)Nc1ccc(Cl)cc1	6.25 (≈ 13.7 µM)	0.78 (≈ 1.71 µM)	3.12 (≈ 6.83 µM)	1.56 (≈ 3.42 µM)	3.12 (≈ 6.83 µM)	> 100	1.56 (≈ 3.42 µM)	3.12 (≈ 6.83 µM)	1.56 (≈ 3.42 µM)	0.78 (≈ 1.71 µM)	0.78 (≈ 1.71 µM)	1.56 (≈ 3.42 µM)	> 100	1.56 (≈ 3.42 µM)	1.56 (≈ 3.42 µM)	1.56 (≈ 3.42 µM)	≤ 0.78
O=C1Nc2c(I)cccc2/C1=N/NC(=S)Nc1ccc(Br)cc1	12.5 (≈ 24.9 µM)	1.56 (≈ 3.11 µM)	6.25 (≈ 12.5 µM)	1.56 (≈ 3.11 µM)	3.12 (≈ 6.23 µM)	> 100	3.12 (≈ 6.23 µM)	3.12 (≈ 6.23 µM)	1.56 (≈ 3.11 µM)	0.78 (≈ 1.56 µM)	1.56 (≈ 3.11 µM)	3.12 (≈ 6.23 µM)	> 100	3.12 (≈ 6.23 µM)	3.12 (≈ 6.23 µM)	3.12 (≈ 6.23 µM)	≤ 0.78
COc1ccc(NC(=S)N/N=C2\C(=O)Nc3c(I)cccc32)cc1	> 100	6.25 (≈ 13.8 µM)	25 (≈ 55.3 µM)	3.12 (≈ 6.9 µM)	12.5 (≈ 27.6 µM)	> 100	6.25 (≈ 13.8 µM)	> 100	6.25 (≈ 13.8 µM)	1.56 (≈ 3.45 µM)	1.56 (≈ 3.45 µM)	> 100	> 100	6.25 (≈ 13.8 µM)	12.5 (≈ 27.6 µM)	6.25 (≈ 13.8 µM)	3.12 (≈ 6.9 µM)
Cc1ccc(NC(=S)N/N=C2\C(=O)Nc3c(I)cccc32)cc1	12.5 (≈ 28.7 µM)	1.56 (≈ 3.58 µM)	3.12 (≈ 7.15 µM)	0.78 (≈ 1.79 µM)	6.25 (≈ 14.3 µM)	> 100	1.56 (≈ 3.58 µM)	3.12 (≈ 7.15 µM)	3.12 (≈ 7.15 µM)	0.78 (≈ 1.79 µM)	0.78 (≈ 1.79 µM)	6.25 (≈ 14.3 µM)	> 100	3.12 (≈ 7.15 µM)	3.12 (≈ 7.15 µM)	1.56 (≈ 3.58 µM)	1.56 (≈ 3.58 µM)
COc1ccccc1NC(=S)N/N=C1\C(=O)Nc2c(F)cccc21	> 100	> 100	> 100	> 100	> 100	> 100	> 100	> 100	> 100	> 100	> 100	> 100	> 100	> 100	> 100	> 100	> 100
O=C1Nc2c(I)cccc2/C1=N/NC(=S)Nc1cccc(F)c1	6.25 (≈ 14.2 µM)	0.78 (≈ 1.77 µM)	1.56 (≈ 3.54 µM)	0.78 (≈ 1.77 µM)	3.12 (≈ 7.09 µM)	> 100	1.56 (≈ 3.54 µM)	3.12 (≈ 7.09 µM)	0.78 (≈ 1.77 µM)	0.78 (≈ 1.77 µM)	0.78 (≈ 1.77 µM)	1.56 (≈ 3.54 µM)	> 100	1.56 (≈ 3.54 µM)	1.56 (≈ 3.54 µM)	0.78 (≈ 1.77 µM)	≤ 0.78
O=C1Nc2c(I)cccc2/C1=N/NC(=S)Nc1ccc(F)cc1	6.25 (≈ 14.2 µM)	1.56 (≈ 3.54 µM)	3.12 (≈ 7.09 µM)	0.78 (≈ 1.77 µM)	3.12 (≈ 7.09 µM)	> 100	1.56 (≈ 3.54 µM)	3.12 (≈ 7.09 µM)	3.12 (≈ 7.09 µM)	0.78 (≈ 1.77 µM)	0.78 (≈ 1.77 µM)	1.56 (≈ 3.54 µM)	> 100	1.56 (≈ 3.54 µM)	1.56 (≈ 3.54 µM)	1.56 (≈ 3.54 µM)	≤ 0.78
O=C(O)c1cn(C2CC2)c2cc(N3CCNCC3)c(F)cc2c1=O [CIPROFLOXACIN]	–	–	–	–	–	–	–	–	–	–	–	–	1 (≈ 3.02 µM)	–	–	–	–
COc1cccc(OC)c1C(=O)N[C@@H]1C(=O)N2[C@@H]1SC(C)(C)[C@@H]2C(=O)O [METHICILLIN]	–	> 200	> 200	> 200	> 200	–	> 200	–	> 200	–	> 200	–	–	> 200	> 200	> 200	–
CN[C@H](CC(C)C)C(=O)N[C@H]1C(=O)N[C@@H](CC(N)=O)C(=O)N[C@H]2C(=O)N[C@H]3C(=O)N[C@H](C(=O)N[C@H](C(=O)O)c4cc(O)cc(O)c4-c4cc3ccc4O)[C@H](O)c3ccc(c(Cl)c3)Oc3cc2cc(c3O[C@@H]2O[C@H](CO)[C@@H](O)[C@H](O)[C@H]2O[C@H]2C[C@](C)(N)[C@H](O)[C@H](C)O2)Oc2ccc(cc2Cl)[C@H]1O [VANCOMYCIN]	2 (≈ 1.38 µM)	–	–	–	–	–	–	> 8	–	–	–	–	–	–	–	–	0.5 (≈ 0.345 µM)
